Experimental data as given in patent US6465482B2, “Arylpiperazinyl-cyclohexyl indole derivatives for the treatment of depression” (Wyeth, priority 1999, dated 2002).
Where a name gives a salt, the structure may show the parent alone.

Question: Which melting point does the source give for `Clc1ccc2[nH]cc([C@H]3CC[C@@H](N4CCN(c5cccc6[nH]ccc56)CC4)CC3)c2c1` (as salt: HCl) (hydrate or solvate) [Example 6a, 5-Chloro-3-[cis-4-[4-(1H-indol-4-yl)-1-piperazinyl]cyclohexyl]-1H-indole] here?
Answer: The melting point was 283 to 285 °C.

Question: For `Cn1ccc2c(N3CCN([C@H]4CC[C@@H](c5cn(C)c6cc(F)ccc65)CC4)CC3)cccc21` (as salt: HCl) (hydrate or solvate) [Example 11, 6-Fluoro-1-methyl-3-{cis-4-[4-(1-methyl-1H-indol-4-yl)-1-piperazinyl]cyclohexyl}-1H-indole], which melting point is on record?
Answer: Its melting point is 253 to 254 °C.

Question: For `N#Cc1ccc2[nH]cc([C@H]3CC[C@H](N4CCN(c5cccc6ccoc56)CC4)CC3)c2c1` (as salt: HCl) (hydrate or solvate) [Example 34b], which melting point is on record?
Answer: The melting point was 330 to 331 °C.

Question: With `CN(C)C(=O)c1cc(N2CCN([C@H]3CC[C@@H](c4cn(C)c5ccc(C#N)cc54)CC3)CC2)c2ncccc2c1` (as salt: oxalate) [Example 77a, 8-[4-[(cis)-4-(5-Cyano-1-methyl-1H-indol-3-yl)cyclohexyl]-1-piperazinyl]-N,N-dimethyl-6-quinolincarboxamide] as the molecule, how does the melting point read?
Answer: Its melting point is 163 to 165 °C.

Question: Which melting point does the source give for `COc1cc2cccnc2c(N2CCN([C@H]3CC[C@@H](c4cn(C)c5ccc(C#N)cc54)CC3)CC2)n1` (as salt: salt) [Example 66a, (cis)-3-{4-[4-(6-Methoxy[1,7]naphthyridin-8-yl)piperazin-1-yl]cyclohexyl}-1-methyl-1H-indole-5-carbonitrile] here?
Answer: Its melting point is 235 to 238 °C.

Question: Which melting point does the source give for `COC(=O)c1cc(N2CCN([C@H]3CC[C@@H](c4cn(C)c5ccc(C#N)cc54)CC3)CC2)c2ncccc2c1` (as salt: oxalate) [Example 75, Methyl 8-[4-[(cis)-4-(5-cyano-1-methyl-1H-indol-3-yl)cyclohexyl]-1-piperazinyl]-6-quinolinecarboxylate] here?
Answer: The melting point was 153 to 155 °C.

Question: For `COc1ccc2cc(N3CCN(C4CCC(c5c[nH]c6ccc(F)cc56)CC4)CC3)ccc2c1` (centres unmarked) (as salt: oxalate) [Example 69, 5-Fluoro-3-{4-[4-(6-Methoxy-naphthalen-2-yl)-piperazin-1-yl]-cyclohexyl}-1H-indole], which melting point is on record?
Answer: The melting point was 200 to 203 °C.

Question: For `Cn1cc([C@H]2CC[C@@H](N3CCN(c4cc(F)cc5c4OCC5)CC3)CC2)c2cc(C#N)ccc21` (as salt: HCl) [Example 33c, 3-{(1,4-cis)-4-[4-(5-Fluoro-2,3-dihydro-benzofuran-7-yl)-piperazin-1-yl]-cyclohexyl}-1-methyl-1H-indole-5-carbonitrile], which melting point is on record?
Answer: Its melting point is 282 to 284 °C.

Question: For `Brc1ccc2[nH]cc([C@H]3CC[C@H](N4CCN(c5cccc6[nH]ccc56)CC4)CC3)c2c1` (as salt: HCl) [Example 5b, 5-Bromo-3-[trans-4-[4-(1H-indol-4-yl)-1-piperazinyl]cyclohexyl]-1H-indole], which melting point is on record?
Answer: The melting point was over 300 °C.

Question: For `CCCn1cc([C@H]2CC[C@@H](N3CCN(c4cccc5[nH]ccc45)CC3)CC2)c2cc(C#N)ccc21` (as salt: HCl) (hydrate or solvate) [Example 14a, 3-{(1,4-cis)-4-[4-(1H-Indol-4-yl)-piperazin-1-yl]-cyclohexyl}-1-propyl-1H-indole-5-carbonitrile], which melting point is on record?
Answer: The melting point was 200 to 206 °C.

Question: For `c1cc(N2CCN([C@H]3CC[C@@H](c4c[nH]c5ncccc54)CC3)CC2)c2cc[nH]c2c1` (as salt: HCl) [Example 10a, 3-{(1,4-cis)-4-[4-(1H-Indole-4-yl)-piperazin-1-yl]-cyclohexyl}-1H-pyrrolo[2,3-b]pyridine], which melting point is on record?
Answer: The melting point was > 250 °C (dec.).

Question: With `Cn1cc([C@H]2CC[C@@H](N3CCN(c4cccc5[nH]ccc45)CC3)CC2)c2cc(C#N)ccc21` (as salt: HCl) (hydrate or solvate) [Example 12a, 3-{(1,4-cis)-4-[4-(1H-indol-4-yl)-piperazin-1-yl]-cyclohexyl}-1-methyl-1H-indole-5-carbonitrile] as the molecule, how does the melting point read?
Answer: The melting point was 285.5 to 288 °C.

Question: With `COc1ccc2[nH]cc([C@H]3CC[C@H](N4CCN(c5cccc6[nH]ccc56)CC4)CC3)c2c1` (as salt: HCl) (hydrate or solvate) [Example 8b, 5-Methoxy-3-[trans-4-[4-(1H-indol-4-yl)-1-piperazinyl]cyclohexyl]-1H-indole] as the molecule, how does the melting point read?
Answer: Its melting point is 194 to 196 °C.

Question: Which melting point does the source give for `Fc1ccc2c(c1)[nH]cc2[C@H]1CC[C@@H](N2CCN(c3cccc4[nH]ccc34)CC2)CC1` (as salt: HCl) [Example 4a, 6-Fluoro-3-[cis-4-[4-(1H-indol-4-yl)-1-piperazinyl]cyclohexyl]-1H-indole] here?
Answer: The melting point was 250 to 252 °C (dec.).

Question: With `COc1ccc(F)cc1N1CCN([C@H]2CC[C@H](c3c[nH]c4ccc(F)cc43)CC2)CC1` (as salt: HCl) [Example 22b, 5-Fluoro-3-{(trans)-4-[4-(5-fluoro-2-methoxy-phenyl)-piperazin-1-yl]-cyclohexyl}-1H-indole] as the molecule, how does the melting point read?
Answer: Its melting point is 272 to 273.5 °C.

Question: Which melting point does the source give for `N#Cc1ccc2[nH]cc([C@H]3CC[C@H](N4CCN(c5cccc6[nH]ccc56)CC4)CC3)c2c1` (as salt: HCl) [Example 7b, 3-{4-[(1,4-trans)-4-(1H-Indol-4-yl)-piperazinyl-1-yl]cyclohexyl}-1H-indole-5-carbonitrile] here?
Answer: The melting point was over 310 °C.

Question: With `Cn1cc([C@H]2CC[C@@H](N3CCN(c4cccc5cccnc45)CC3)CC2)c2cc(F)ccc21` (as salt: HCl) (hydrate or solvate) [Example 28, 8-{4-(1,4-cis)-4-[4-(5-Fluoro-1-methyl-1H-indol-3-yl)-cyclohexyl]-piperazin-1-yl}-quinoline] as the molecule, how does the melting point read?
Answer: The melting point was 261 to 263.5 °C.

Question: With `COc1ccccc1N1CCN([C@H]2CC[C@@H](c3c[nH]c4ccc(F)cc43)CC2)CC1` (as salt: HCl) [Example 18, 5-Fluoro-3-{(cis)-4-[4-(2-methoxy-phenyl)-piperazin-1-yl]-cyclohexyl}-1H-indole] as the molecule, how does the melting point read?
Answer: The melting point was 170 to 172 °C.

Question: For `N#Cc1ccc2[nH]cc([C@H]3CC[C@@H](N4CCN(c5cccc6c5OCCO6)CC4)CC3)c2c1` (as salt: HCl) [Example 26a, 3-{(1,4-cis)-4-[4-(2,3-Dihydro-benzo[1,4]dioxin-5-yl)-piperazin-1-yl]-cyclohexyl}-1H-indole-5-carbonitrile], which melting point is on record?
Answer: The melting point was 300 °C.

Question: For `c1cc(N2CCN([C@H]3CC[C@H](c4c[nH]c5ccccc54)CC3)CC2)c2cc[nH]c2c1` (as salt: HCl) [Example 1b, 3-[trans-4-[4-(1H-Indol-4-yl)-1-piperazinyl]cyclohexyl]-1H-indole], which melting point is on record?
Answer: Its melting point is 305 °C (dec.).

Question: Which melting point does the source give for `N#Cc1ccc2[nH]cc([C@H]3CC[C@H](N4CCN(c5cccc6c5OCCO6)CC4)CC3)c2c1` (as salt: HCl) [Example 26b, 3-{(1,4-trans)-4-[4-(2,3-Dihydro-benzo[1,4]dioxin-5-yl)-piperazin-1-yl]-cyclohexyl}-1H-indole-5-carbonitrile] here?
Answer: The melting point was 300 °C (dec.).

Question: For `COc1cc(N2CCN([C@H]3CC[C@@H](c4c[nH]c5ccc(C(F)(F)F)cc54)CC3)CC2)c2ncccc2c1` [Example 82, 6-Methoxy-8-(4-{(cis)-4-[5-(trifluoromethyl)-1H-indol-3-yl]cyclohexyl}-1-piperazinyl)quinoline], which melting point is on record?
Answer: The melting point was 143 to 147 °C.

Question: With `Fc1ccc2c(c1)[nH]cc2[C@H]1CC[C@H](N2CCN(c3cccc4c3OCCO4)CC2)CC1` (as salt: HCl) [Example 25b, 3-{(1,4-trans)-4-[4-(2,3-Dihydro-benzo[1,4]dioxin-5-yl)-piperazin-1-yl]-cyclohexyl}-6-fluoro-1H-indole] as the molecule, how does the melting point read?
Answer: Its melting point is 309 to 310 °C.

Question: For `COc1cc(N2CCN([C@H]3CC[C@H](c4cn(C)c5ccc(C#N)cc54)CC3)CC2)c2ncccc2c1Cl` [Example 52f, (trans)-3-{4-[4-(5-Chloro-6-methoxyquinolin-8-yl)piperazin-1-yl]cyclohexyl}-1-methyl-1H-indole-5-carbonitrile], which melting point is on record?
Answer: Its melting point is 215 to 216 °C.

Question: Which melting point does the source give for `N#Cc1ccc2[nH]cc([C@H]3CC[C@@H](N4CCN(c5cccc6ccoc56)CC4)CC3)c2c1` (as salt: HCl) (hydrate or solvate) [Example 34a] here?
Answer: Its melting point is 295 to 296 °C.

Question: Which melting point does the source give for `Cc1[nH]c2ccccc2c1[C@H]1CC[C@H](N2CCN(c3cccc4[nH]ccc34)CC2)CC1` (as salt: HCl) [Example 9b, 3-[trans-4-[4-(1H-Indol-4-yl)-1-piperazinyl]cyclohexyl]-2-methyl-1H-indole] here?
Answer: Its melting point is over 310 °C.

Question: Which melting point does the source give for `Fc1cccc2[nH]cc([C@H]3CC[C@@H](N4CCN(c5cccc6[nH]ccc56)CC4)CC3)c12` (as salt: HCl) (hydrate or solvate) [Example 2a, 4-Fluoro-3-[cis-4-[4-(1H-indol-4-yl)-1-piperazinyl]cyclohexyl]-1H-indole] here?
Answer: The melting point was 283 to 285 °C.

Question: Which melting point does the source give for `Fc1ccc2c(c1)[nH]cc2[C@H]1CC[C@H](N2CCN(c3cccc4[nH]ccc34)CC2)CC1` (as salt: HCl) [Example 4b, 6-Fluoro-3-[trans-4-[4-(1H-indol-4-yl)-1-piperazinyl]cyclohexyl]-1H-indole] here?
Answer: Its melting point is 319 to 320 °C (dec.).

Question: With `Cn1cc([C@H]2CC[C@H](N3CCN(c4cc(C(=O)O)cc5cccnc45)CC3)CC2)c2cc(C#N)ccc21` [Example 74, 8-[4-[(trans)-4-(5-Cyano-1-methyl-1H-indole-3-yl)cyclohexyl]-1-piperazinyl]-6-quinolinecarboxylic Acid] as the molecule, how does the melting point read?
Answer: Its melting point is 275 °C.

Question: Which melting point does the source give for `CC(C)n1cc([C@H]2CC[C@@H](N3CCN(c4cccc5[nH]ccc45)CC3)CC2)c2cc(C#N)ccc21` (as salt: HCl) (hydrate or solvate) [Example 15a, 3-{(1,4-cis)-4-[4-(1H-indol-4-yl)-piperazin-1-yl]-cyclohexyl}-1-isopropyl-1H-indole-5-carbonitrile] here?
Answer: The melting point was 285 to 286 °C.

Question: For `COc1ccc2[nH]cc([C@H]3CC[C@H](N4CCN(c5ccccc5OC)CC4)CC3)c2c1` (as salt: HCl) [Example 20b, 5-Methoxy-3-{(1,4-trans)-4-[4-(2-methoxy-phenyl)-piperazin-1-yl]-cyclohexyl}-1H-indole], which melting point is on record?
Answer: The melting point was 195 to 197 °C.

Question: For `Fc1ccc2c(c1)[nH]cc2[C@H]1CC[C@@H](N2CCN(c3cccc4c3OCCO4)CC2)CC1` (as salt: HCl) [Example 25a, 3-{(1,4-cis)-4-[4-(2,3-Dihydro-benzo[1,4]dioxin-5-yl)-piperazin-1-yl]-cyclohexyl}-6-fluoro-1H-indole], which melting point is on record?
Answer: The melting point was 228 to 230 °C.
